Results taken from patent US20040156869A1, “2-substituted quinazolin-4-ylamine analogues” (Neurogen Corporation, priority 2002, published 2004).

Target: human capsaicin receptor (VR1) (Homo sapiens, UniProt Q8NER1)
Assay: Capsaicin receptor binding assay ([3H]RTX competition, VR1-transfected HEK293 membranes)

Chain of human capsaicin receptor (VR1) (Q8NER1 whole entry): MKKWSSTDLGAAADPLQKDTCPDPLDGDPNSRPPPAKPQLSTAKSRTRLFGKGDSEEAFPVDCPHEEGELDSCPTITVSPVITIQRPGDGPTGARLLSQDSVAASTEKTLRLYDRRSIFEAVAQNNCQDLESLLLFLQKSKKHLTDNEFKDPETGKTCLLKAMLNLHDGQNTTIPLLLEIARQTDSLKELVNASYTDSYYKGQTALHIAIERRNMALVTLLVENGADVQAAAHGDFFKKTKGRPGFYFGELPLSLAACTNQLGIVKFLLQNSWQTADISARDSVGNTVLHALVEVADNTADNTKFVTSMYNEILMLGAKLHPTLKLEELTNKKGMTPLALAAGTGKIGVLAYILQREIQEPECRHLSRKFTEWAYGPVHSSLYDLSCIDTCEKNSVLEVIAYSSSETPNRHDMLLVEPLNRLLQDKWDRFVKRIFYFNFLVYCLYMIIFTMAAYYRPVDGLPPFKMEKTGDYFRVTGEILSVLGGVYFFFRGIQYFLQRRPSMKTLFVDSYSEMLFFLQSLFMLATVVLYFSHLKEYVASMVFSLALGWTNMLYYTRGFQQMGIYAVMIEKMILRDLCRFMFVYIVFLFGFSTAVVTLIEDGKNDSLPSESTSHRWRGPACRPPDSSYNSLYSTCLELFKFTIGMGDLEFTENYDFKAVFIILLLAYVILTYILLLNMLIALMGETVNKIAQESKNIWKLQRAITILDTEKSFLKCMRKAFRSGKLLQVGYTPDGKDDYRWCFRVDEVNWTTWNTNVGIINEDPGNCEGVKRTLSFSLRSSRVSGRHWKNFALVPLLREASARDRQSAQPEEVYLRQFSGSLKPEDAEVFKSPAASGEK

Row | Compound | Ki [nM]
1 | C[C@@H]1C[C@H](C)CN(Cc2nc(Nc3ccc(C(F)(F)F)cc3)c3ncc(-c4ncccc4C(F)(F)F)cc3n2)C1 [Compound 668, [2-(3,5-Dimethyl-piperidin-1-ylmethyl)-7-(3-trifluoromethyl-pyridin-2-yl)-pyrido[3,2-d]pyrimidin-4-yl]-(4-trifluoromethyl-phenyl)-amine (cis)] | < 1000
2 | COCc1cc(Nc2ccc(C(C)(C)C)cc2)c2ccc(-c3ncccc3C(F)(F)F)nc2n1 [Compound 298, (4-tert-Butyl-phenyl)-[2-methoxymethyl-7-(3-trifluoromethyl-pyridin-2-yl)-[1,8]naphthyridin-4-yl]-amine] | < 1000
3 | Cc1cccnc1-c1ccc2c(Nc3ccc(C(F)(F)F)cc3)nc(C3CCOC3)nc2n1 (stereo not shown) [Compound 174, [7-(3-Methyl-pyridin-2-yl)-2-(tetrahydro-furan-3-yl)-pyrido[2,3-d]pyrimidin-4-yl]-(4-trifluoromethyl-phenyl)-amine] | < 1000
4 | C=CCN(C)C(=O)c1nc(Nc2ccc(C(F)(F)F)cc2)c2ccc(-c3ncccc3C(F)(F)F)nc2n1 [Compound 464, 4-(4-Trifluoromethyl-phenylamino)-7-(3-trifluoromethyl-pyridin-2-yl)-pyrido[2,3-d]pyrimidine-2-carboxyiic acid allyl-methyl-amide] | < 1000
5 | CC(C)COCc1nc(Nc2ccc(CC(=O)O)cc2)c2ccc(-c3ncccc3Cl)nc2n1 [Compound 284, {4-[7-(3-Chloro-pyridin-2-yl)-2-isobutoxymethyl-pyrido[2,3-d]pyrimidin-4-ylamino]-phenyl}-acetic acid] | < 1000
6 | COCC(C)(C)c1ccc(Nc2nc(COCC(C)C)nc3nc(-c4ncccc4C)ccc23)cc1 [Compound 215, [2-Isobutoxymethyl-7-(3-methyl-pyridin-2-yl)-pyrido[2,3-d]pyrimidin-4-yl]-[4-(2-methoxy-1,1-dimethyl-ethyl)-phenyl]-amine] | < 1000
7 | Cc1cccnc1-c1ccc2c(Nc3ccc(C(F)(F)F)cc3)nc(COCC(C)C)nc2n1 [Compound 131, [2-Isobutoxymethyl-7-(3-methyl-pyridin-2-yl)-pyrido[2,3-d]pyrimidin-4-yl]-(4-trifluoromethyl-phenyl)-amine] | < 1000
8 | COCc1nc(Nc2ccc(C(C)(C)C)cc2)c2ncc(-c3ncccc3C(F)(F)F)cc2n1 [Compound 50, (4-tert-Butyl-phenyl)-[2-methoxymethyl-7-(3-trifluoromethyl-pyridin-2-yl)-pyrido[3,2-d]pyrimidin-4-yl]-amine] | < 1000
9 | CS(=O)(=O)NCc1nc(Nc2ccc(C(F)(F)F)cc2)c2ccc(-c3ncccc3C(F)(F)F)cc2n1 [Compound 506, N-[4-(4-Trifluoromethyl-phenylamino)-7-(3-trifluoromethyl-pyridin-2-yl)-quinazolin-2-ylmethyl]-methanesulfonamide] | < 1000
10 | CCOC(=O)N1CCN(Cc2nc(Nc3ccc(C(F)(F)F)nc3)c3ccc(-c4ncccc4C(F)(F)F)cc3n2)CC1 [Compound 483, 4-[7-(3-Trifluoromethyl-pyridin-2-yl)-4-(6-trifluoromethyl-pyridin-3-ylamino)-quinazolin-2-ylmethyl]-piperazine-1-carboxylic acid ethyl ester] | < 1000
11 | CCOC(=O)C1CCN(Cc2nc(Nc3ccc(C(F)(F)F)nc3)c3ccc(-c4ncccc4C(F)(F)F)cc3n2)CC1 [Compound 491, 1-[7-(3-Trifluoromethyl-pyridin-2-yl)-4-(6-trifluoromethyl-pyridin-3-ylamino)-quinazolin-2-ylmethyl]-piperidine-4-carboxylic acid ethyl ester] | < 1000
12 | CC(C)COCc1nc(Nc2ccc(Cl)cc2)c2ccc(-c3ncccc3C(F)(F)F)nc2n1 [Compound 249, (4-Chloro-phenyl)-[2-isobutoxymethyl-7-(3-trifluoromethyl-pyridin-2-yl)-pyrido[2,3-d]pyrimidin-4-yl]-amine] | < 1000

Next, values leading:

Row | Ki [nM] | Compound
13 | < 1000 | COc1ccc(CNCc2nc(Nc3ccc(C(F)(F)F)nc3)c3ccc(-c4ncccc4C(F)(F)F)cc3n2)cc1 [Compound 577, [2-[(4-Methoxy-benzylamino)-methyl]-7-(3-trifluoromethyl-pyridin-2-yl)-quinazolin-4-yl]-(6-trifluoromethyl-pyridin-3-yl)-amine]
14 | < 1000 | CC(C)S(=O)(=O)c1ccc(Nc2nc(CN3C[C@H](C)O[C@@H](C)C3)nc3cc(-c4ncccc4C(F)(F)F)ccc23)cc1 [Compound 643, (S,S)-[2-(2,6-Dimethyl-morpholin-4-ylmethyl)-7-(3-trifluoromethyl-pyridin-2-yl)-quinazolin-4-yl]-[4-(propane-2-sulfonyl)-phenyl]-amine]
15 | < 1000 | CC(C)(C)c1ccc(Nc2nc(CCCOCc3ccccc3)nc3cc(-c4ncccc4C(F)(F)F)ccc23)cn1 [Compound 15, [2-(3-Benzyloxy-propyl)-7-(3-trifluoromethyl-pyridin-2-yl)-quinazolin-4-yl]-(6-tert-butyl-pyridin-3-yl)-amine]
16 | < 1000 | FC(F)(F)c1ccc(Nc2nc(CCCOCc3ccccc3)nc3cc(-c4ncccc4C(F)(F)F)ccc23)cc1 [Compound 12, [2-(3-Benzyloxy-propyl)-7-(3-trifluoromethyl-pyridin-2-yl)-quinazolin-4-yl]-(4-trifluoromethyl-phenyl)-amine]
17 | < 1000 | C=C(C)CN(CC)CCc1nc(Nc2ccc(C(F)(F)F)cc2)c2ccc(-c3ncccc3C(F)(F)F)cc2n1 [Compound 423, [2-{2-[Ethyl-(2-methyl-allyl)-amino]-ethyl}-7-(3-trifluoromethyl-pyridin-2-yl)-quinazolin-4-yl]-(4-trifluoromethyl-phenyl)-amine]
18 | < 1000 | COCCNCc1nc(Nc2ccc(C(F)(F)F)cc2)c2ccc(-c3ncccc3C(F)(F)F)cc2n1 [Compound 535, [2-[(2-Methoxy-ethylamino)-methyl]-7-(3-trifluoromethyl-pyridin-2-yl)-quinazolin-4-yl]-(4-trifluoromethyl-phenyl)-amine]
19 | < 1000 | C[C@@H]1CN(Cc2nc(Nc3ccc(C(F)(F)F)cc3)c3ccc(-c4ncccc4Cl)cc3n2)CCO1 [Compound 674, (R)-[7-(3-Chloro-pyridin-2-yl)-2-(2-methyl-morpholin-4-ylmethyl)-quinazolin-4-yl]-(4-trifluoromethyl-phenyl)-amine]
20 | < 1000 | CCCN(C)CCc1nc(Nc2ccc(C(F)(F)F)cc2)c2ccc(-c3ncccc3C(F)(F)F)cc2n1 [Compound 412, [2-[(Propyl-methyl-amino)-ethyl]-7-(3-trifluoromethyl-pyridin-2-yl)-quinazolin-4-yl]-(4-trifluoromethyl-phenyl)-amine]
21 | < 1000 | CC1CCN(CCc2nc(Nc3ccc(C(F)(F)F)cc3)c3ccc(-c4ncccc4C(F)(F)F)cc3n2)CC1 [Compound 401, [2-(4-Methyl-piperidin-1-ylethyl)-7-(3-trifluoromethyl-pyridin-2-yl)-quinazolin-4-yl]-(4-trifluoromethyl-phenyl)-amine]
22 | < 1000 | COCc1nc(Nc2ccc(C(F)(F)F)c(C)c2)c2ccc(-c3ncccc3C(F)(F)F)nc2n1 [Compound 182, [2-Methoxymethyl-7-(3-trifluoromethyl-pyridin-2-yl)-pyrido[2,3-d]pyrimidin-4-yl]-(3-methyl-4-trifluoromethyl-phenyl)-amine]
23 | < 1000 | CCCCCCN(CCCCCC)Cc1nc(Nc2ccc(C(F)(F)F)nc2)c2ccc(-c3ncccc3C(F)(F)F)cc2n1 [Compound 386, [2-Dihexylaminomethyl-7-(3-trifluoromethyl-pyridin-2-yl)-quinazolin-4-yl]-(6-trifluoromethyl-pyridin-3-yl)-amine]
24 | < 1000 | CN(C)CCCN(C)Cc1nc(Nc2ccc(C(F)(F)F)cc2)c2ccc(-c3ncccc3C(F)(F)F)cc2n1 [Compound 706, N,N,N′-Trimethyl-N′-[4-(4-trifluoromethyl-phenylamino)-7-(3-trifluoromethyl-pyridin-2-yl)-quinazolin-2-ylmethyl]-propane-1,3-diamine]
25 | < 1000 | COCc1nc(Nc2ccc(C(F)(F)F)c(C)c2)c2ccc(-c3ncccc3Cl)nc2n1 [Compound 197, [7-(3-Chloro-pyridin-2-yl)-2-methoxymethyl-pyrido[2,3-d]pyrimidin-4-yl]-(3-methyl-4-trifluoromethyl-phenyl)-amine]
26 | < 1000 | C[C@H]1CN(Cc2nc(Nc3ccc(C(F)(F)F)nc3)c3ccc(-c4ncccc4Cl)cc3n2)C[C@H](C)O1 [Compound 608, (S,S)-[7-(3-Chloro-pyridin-2-yl)-2-(2,6-dimethyl-morpholin-4-ylmethyl)-quinazolin-4-yl]-(6-trifluoromethyl-pyridin-3-yl)-amine]
27 | < 1000 | CN(C)C(=O)c1nc(Nc2ccc(C(F)(F)F)cc2)c2ccc(-c3ncccc3C(F)(F)F)cc2n1 [Compound 707, 4-(4-Trifluoromethyl-phenylamino)-7-(3-trifluoromethyl-pyridin-2-yl)-quinazoline-2-carboxylic acid dimethylamide]
28 | < 1000 | CN(Cc1nc(Nc2ccc(C(F)(F)F)nc2)c2ccc(-c3ncccc3C(F)(F)F)cc2n1)C1CCCCC1 [Compound 381, [2-[(Cyclohexyl-methyl-amino)-methyl]-7-(3-trifluoromethyl-pyridin-2-yl)-quinazolin-4-yl]-(6-trifluoromethyl-pyridin-3-yl)-amine]
29 | < 1000 | CC(C)S(=O)(=O)c1ccc(Nc2nc(CN3C[C@@H](C)O[C@H](C)C3)nc3cc(-c4ncccc4Cl)ccc23)cc1 [Compound 631, (R,R)-[7-(3-Chloro-pyridin-2-yl)-2-(2,6-dimethyl-morpholin-4-ylmethyl)-quinazolin-4-yl]-[4-(propane-2-sulfonyl)-phenyl]-amine]
30 | < 1000 | FC(F)(F)c1ccc(Nc2nc(COC3CCOCC3)nc3cc(-c4ncccc4Cl)ccc23)cc1 [Compound 102, [7-(3-Chloro-pyridin-2-yl)-2-(tetrahydro-pyran-4-yloxymethyl)-quinazolin-4-yl]-(4-trifluoromethyl-phenyl)-amine]
31 | < 1000 | CC(C)[C@@H](OCc1nc(Nc2ccc(C(C)(C)C)cc2)c2ccc(-c3ncccc3C(F)(F)F)cc2n1)C(=O)O [Compound 234, 2-[4-(4-tert-Butyl-phenylamino)-7-(3-trifluoromethyl-pyridin-2-yl)-quinazolin-2-ylmethoxy]-3-methyl-butyric acid (R)]
